The record followed here is article PMC5385491, “Antiviral activity of chlorogenic acid against influenza A (H1N1/H3N2) virus and its inhibition of neuraminidase” (Scientific Reports, 2017).

The term IC50 denotes the concentration that inhibits the measured activity by half. Low values mean greater potency in that assay, high ones weaker potency in that assay.

The target of the experiment is T1, NA of influenza A/PuertoRico/8/1934 (H1N1) virus (Influenza A virus (A/Puerto Rico/8/1934(H1N1)), UniProt P03468).
T1 construct: native viral NA in allantoic fluid of infected embryonated chicken eggs (whole virus, not purified)
T1 sequence (P03468 whole entry): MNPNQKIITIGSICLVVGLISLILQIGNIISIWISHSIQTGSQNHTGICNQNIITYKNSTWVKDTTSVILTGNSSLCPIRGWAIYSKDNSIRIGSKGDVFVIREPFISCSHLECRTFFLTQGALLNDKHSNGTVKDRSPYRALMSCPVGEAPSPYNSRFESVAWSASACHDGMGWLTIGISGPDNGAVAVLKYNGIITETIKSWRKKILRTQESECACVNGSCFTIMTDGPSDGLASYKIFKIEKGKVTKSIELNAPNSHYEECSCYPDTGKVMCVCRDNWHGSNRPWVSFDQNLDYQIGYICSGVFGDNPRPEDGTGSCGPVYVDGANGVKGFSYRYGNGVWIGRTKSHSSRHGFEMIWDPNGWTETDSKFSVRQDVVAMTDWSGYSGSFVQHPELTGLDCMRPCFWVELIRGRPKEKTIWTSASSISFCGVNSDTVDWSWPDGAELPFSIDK
Briefly: fluorescence NA inhibition assay with MU-NANA. To be noted: MU-NANA substrate (30 μl of 80 μM in 100 μl); 10 min preincubation, 30 min reaction, 37 °C; virus-containing allantoic fluid. The class given is biochemical.

Structures are written as SMILES.

Regarding `O=C(/C=C/c1ccc(O)c(O)c1)O[C@@H]1C[C@](O)(C(=O)O)C[C@@H](O)[C@H]1O` [CHA, chlorogenic acid], the IC50 came to 22.1 ± 1.07 µM.
